Among the data in US7402605B2, “8-azaprostaglandin derivative compounds and drugs containing the compounds as the active ingredient” (Ono Pharmaceutical Co., Ltd., priority 2002, dated 2008) are Ki values, retold here.

pKi: −log10 of the molar value.

For this assay, the target named is T1, mouse EP2 receptor (Mus musculus, UniProt Q62053).
T1 construct: expressed in transfected cells; host or cells: CHO cells (membrane fraction)
Put plainly: Receptor-binding experiment (3H-PGE2 displacement) using membranes of CHO cells expressing prostanoid receptor sub-type EP2. The following applies: inhibition of 3H-PGE2 (2.5 nM) binding, CHO cell membrane fraction, room temperature 1 hour, pH 6.0; Ki=IC50/(1+([C]/Kd)). As for the experimental part:
(i) Experiment for Receptor-Binding Using Cells Which Express Prostanoid Receptor Sub-Types
According to the method of Sugimoto et al. (J. Biol. Chem., 267, 6463-6466 (1992)), CHO cells which expressed prostanoid receptor sub-types (murine EP1, EP2, EP3α, and EP4, respectively) were prepared and used as membrane authentic samples.
A reaction solution (200 μl) containing the prepared membrane fraction (0.5 mg/ml) and ^3H-PGE2 was incubated at room temperature for 1 hour. The reaction was terminated with ice cold buffer (3 ml), and the reaction mixture was filtered under suction through a glass filter (GF/B), on which the binding ^3H-PGE2 was trapped, and the binding radioactivity was measured by means of a liquid scintillator.
The Kd value was obtained from the Scatchard plots [Ann. N.Y. Acad. Sci., 51, 660 (1949)]. Non-specific binding was obtained as the binding in the presence of an excess amount (2.5 μM) of unlabelled PGE2. Measurement of the binding inhibition for ^3H-PGE2 with the compounds of the present invention was performed by adding ^3H-PGE2 (2.5 nM) and a series of concentrations of the compound of the present invention. In this reaction, the following buffer was used in all cases. • Buffer: 10 mM potassium phosphate (pH 6.0), 1 mM EDTA, 10 mM MgCl2, and 0.1M NaCl.
Dissociation constant Ki (μM) of each compound was calculated from the following equation. […]

T1 sequence (Q62053 whole entry): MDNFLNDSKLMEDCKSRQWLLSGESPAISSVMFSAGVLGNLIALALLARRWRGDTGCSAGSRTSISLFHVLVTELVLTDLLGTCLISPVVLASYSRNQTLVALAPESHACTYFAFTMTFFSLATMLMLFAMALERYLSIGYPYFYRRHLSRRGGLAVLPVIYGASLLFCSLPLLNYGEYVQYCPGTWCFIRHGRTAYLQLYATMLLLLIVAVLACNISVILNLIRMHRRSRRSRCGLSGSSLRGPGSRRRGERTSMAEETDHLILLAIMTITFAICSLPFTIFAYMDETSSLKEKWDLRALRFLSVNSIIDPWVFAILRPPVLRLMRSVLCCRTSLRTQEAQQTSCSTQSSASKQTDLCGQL

With `CCCCc1ccc(C2CCC(=O)N2CCSc2nc(C(=O)O)cs2)cc1` (stereo not shown) [Example 4(1), 2-(2-(2-(4-n-butylphenyl)-5-oxopyrrolidin-1-yl)ethylthio)thiazole-4-carboxylic acid], the negative-log Ki (pKi) – broadly, the negative decadic logarithm of the Ki, by convention in mol/L – was 7.85.
